Legend:
Assay in all cases: CTG-3D luminescence at 96 h relative to day-0 seeding control (ratio to day 0); higher = more growth / less cytotoxicity; PDxO 3D drug screen, 96 h, CTG-3D normalised to day-0 seeding control.
HCI-015 = test system: HCI-015 (organoid from a triple-negative breast cancer xenograft)
HCI-002 = test system: HCI-002 (organoid from a triple-negative breast cancer xenograft)
HCI-010 = test system: HCI-010 (organoid from a breast cancer xenograft)
HCI-023 = test system: HCI-023 (organoid from a triple-negative breast cancer xenograft)
HCI-011.E2 = test system: HCI-011.E2 (organoid from an ER-positive breast cancer xenograft)

NC(=O)Nc1cc(-c2cccc(F)c2)sc1C(=O)N[C@H]1CCCNC1 [AZD7762]
CTG-3D luminescence at 96 h
Conditions	12.5 pM	0.00025 µM	0.005 µM	0.1 µM	1 µM	10 µM	100 µM	625 fM
HCI-002, days in culture: 62	2.52	2.46	2.85	2.92	1.41	0.539	0.00339	3.08
HCI-002, days in culture: 82	2.71	3.02	2.27	2.44	1.47	0.623	0.00321	2.87
HCI-002, days in culture: 91	3.98	3.93	3.26	3.87	2.42	0.946	0.00426	4.19
HCI-002, days in culture: 191	2.47	2.51	2.36	2.27	2	0.525	0.00388	2.69
HCI-002, days in culture: 209	2.16	2.27	2.12	1.89	1.31	0.332	0.00089	2.27
HCI-002, days in culture: 227	5.71	5.98	5.18	5.24	2.21	0.595	-0.201	6.1
HCI-010, days in culture: 52	2.15	2.42	2.03	0.844	0.355	0.327	-0.0157	2.28
HCI-010, days in culture: 65	1.69	1.62	1.42	0.742	0.378	0.219	0.00203	1.65
HCI-010, days in culture: 103	3.16	3.35	3.16	1.23	0.651	0.537	0.0021	3.22
HCI-011.E2, days in culture: 74	2.04	2.16	1.88	1.68	1.62	1.33	0.00724	1.92
HCI-015, days in culture: 172	2.49	1.87	2.19	0.668	0.336	0.117	0.000941	2.32
HCI-015, days in culture: 191	1.83	1.42	1.11	0.566	0.248	0.12	-0.000313	1.28
HCI-015, days in culture: 218	1.16	1.65	1.65	0.692	0.211	0.102	-0.000297	1.59
HCI-023, days in culture: 111	1.36	1.49	1.15	0.765	0.201	0.0705	-9.95e-05	1.52
HCI-023, days in culture: 128	1.552	1.6	1.32	0.581	0.161	0.133	0.000895	1.67

HCI-011.E2
Conditions	CTG-3D luminescence at 96 h
12.5 pM	1.57
0.00025 µM	1.86
0.005 µM	1.56
0.1 µM	1.77
1 µM	1.66
10 µM	1.32
100 µM	0.00993
625 fM	1.71

NC1(C(=O)N[C@@H](CCO)c2ccc(Cl)cc2)CCN(c2nc[nH]c3nccc2-3)CC1 [capivasertib]
CTG-3D luminescence at 96 h
Conditions	12.5 pM	0.00025 µM	0.005 µM	0.1 µM	1 µM	10 µM	100 µM	625 fM
HCI-002, days in culture: 62	2.82	2.61	2.83	2.56	2.34	2.26	0.503	2.99
HCI-002, days in culture: 82	2.73	2.76	1.95	2.52	1.92	1.51	0.418	2.8
HCI-002, days in culture: 91	4.24	3.84	3.7	3.73	2.94	3.16	1.6	4
HCI-002, days in culture: 191	2.54	2.72	1.88	2.57	2.45	1.75	0.435	2.31
HCI-002, days in culture: 209	2.44	2.32	2.31	1.92	1.96	1.45	0.402	2.39
HCI-002, days in culture: 227	6.02	6.01	6.13	6.73	5.16	4.63	0.534	6.21
HCI-010, days in culture: 52	2.05	2.33	2.4	2.54	2.01	1.78	0.545	2.15
HCI-010, days in culture: 65	1.57	1.77	1.93	1.6	1.47	1.18	0.287	1.58
HCI-010, days in culture: 103	3.5	3.47	3.91	3.21	2.35	2.11	0.959	3.23
HCI-011.E2, days in culture: 74	1.84	2.07	2.01	1.54	1	0.548	0.307	2.49
HCI-015, days in culture: 172	2.34	2.2	2.33	1.49	1.2	0.92	0.424	2.15
HCI-015, days in culture: 191	2.07	1.39	1.53	1.06	1.24	0.533	0.257	1.27
HCI-015, days in culture: 218	1.47	1.49	1.11	1.59	0.974	0.878	0.315	1.71
HCI-023, days in culture: 111	1.51	1.39	0.992	0.931	0.434	0.366	0.16	1.39
HCI-023, days in culture: 128	1.4	1.63	1.43	1.22	0.571	0.658	0.277	1.75

HCI-011.E2
Conditions	CTG-3D luminescence at 96 h
12.5 pM	1.63
0.00025 µM	1.67
0.005 µM	1.43
0.1 µM	1.63
1 µM	1.05
10 µM	0.559
100 µM	0.275
625 fM	1.8

O=C(/C=C/c1cccnc1)NCCCCC1CCN(C(=O)c2ccccc2)CC1 [FK866]
CTG-3D luminescence at 96 h
Conditions	12.5 pM	0.00025 µM	0.005 µM	0.1 µM	1 µM	10 µM	100 µM	625 fM
HCI-002, days in culture: 62	2.68	2.55	1.43	0.0472	0.0154	0.014	0.0284	3.07
HCI-002, days in culture: 82	2.77	3.14	0.508	0.0661	0.0553	0.0327	0.0409	3.06
HCI-002, days in culture: 91	3.92	3.63	1.55	0.0716	0.0287	0.025	0.0475	4.36
HCI-002, days in culture: 191	2.81	2.7	0.424	0.0805	0.0595	0.0599	0.0916	2.43
HCI-002, days in culture: 209	2.49	2.33	1.05	0.0589	0.0401	0.0272	0.062	2.4
HCI-002, days in culture: 227	5.05	5.39	3.02	0.104	0.0406	0.0434	0.0754	5.65
HCI-010, days in culture: 52	2.32	2.72	1.25	0.204	0.17	0.139	0.119	2.36
HCI-010, days in culture: 65	1.59	1.73	0.682	0.29	0.227	0.202	0.166	1.66
HCI-010, days in culture: 103	3.4	3.45	2.07	0.97	0.904	0.705	0.347	3.29
HCI-011.E2, days in culture: 74	2.62	2.62	2.29	1.99	2.77	2.79	2.06	2.32
HCI-015, days in culture: 172	2.55	0.705	0.752	0.206	0.213	0.158	0.29	2.38
HCI-015, days in culture: 191	2.04	1.32	0.805	0.141	0.243	0.167	0.215	1.64
HCI-015, days in culture: 218	1.79	1.55	0.648	0.169	0.147	0.133	0.158	1.86
HCI-023, days in culture: 111	1.12	1.65	0.244	0.0924	0.0716	0.0618	0.0864	1.25
HCI-023, days in culture: 128	1.73	1.55	0.315	0.153	0.103	0.135	0.123	1.8

HCI-011.E2
Conditions	CTG-3D luminescence at 96 h
12.5 pM	1.74
0.00025 µM	1.7
0.005 µM	1.37
0.1 µM	1.62
1 µM	1.48
10 µM	1.75
100 µM	1.55
625 fM	1.87

C=CCn1c(=O)c2cnc(Nc3ccc(N4CCN(C)CC4)cc3)nc2n1-c1cccc(C(C)(C)O)n1 [adavosertib]
CTG-3D luminescence at 96 h
Conditions	12.5 pM	0.00025 µM	0.005 µM	0.1 µM	1 µM	10 µM	100 µM	625 fM
HCI-002, days in culture: 62	3.1	2.91	2.73	2.4	1.32	0.225	0.324	2.86
HCI-002, days in culture: 82	2.82	2.68	2.02	2.52	1.53	0.198	0.134	2.69
HCI-002, days in culture: 91	3.69	3.67	3.79	3.35	1.82	0.274	0.495	4.31
HCI-002, days in culture: 191	2.59	2.7	2.5	2.3	1.76	0.247	0.507	2.47
HCI-002, days in culture: 209	2.27	2.42	2.11	1.89	1.5	0.217	0.128	2.35
HCI-002, days in culture: 227	6.7	6.34	6.07	6.24	2.13	0.312	0.123	6.55
HCI-010, days in culture: 52	2.37	2.26	2.59	1.87	1	0.21	0.0806	2.17
HCI-010, days in culture: 65	1.57	1.67	1.73	1.64	0.816	0.276	0.126	1.61
HCI-010, days in culture: 103	3.65	3.76	3.59	2.95	1.62	0.459	0.242	3.13
HCI-011.E2, days in culture: 74	1.66	2.29	2.11	2.08	2.2	2.35	1.38	2.46
HCI-015, days in culture: 172	2.15	2.15	2.3	1.04	1.39	0.498	0.139	2.33
HCI-015, days in culture: 191	2.26	1.49	1.67	0.981	0.612	0.246	0.0546	1.6
HCI-015, days in culture: 218	1.97	1.76	1.56	1.43	0.699	0.252	0.0554	1.82
HCI-023, days in culture: 111	1.63	1.12	1.18	1.1	0.554	0.112	0.0325	1.39
HCI-023, days in culture: 128	1.68	1.92	1.34	1.47	0.441	0.148	0.06302	1.85

HCI-011.E2
Conditions	CTG-3D luminescence at 96 h
12.5 pM	1.73
0.00025 µM	1.67
0.005 µM	1.49
0.1 µM	1.89
1 µM	1.41
10 µM	1.73
100 µM	1.51
625 fM	1.62
